Assay results as given in ChEMBL document CHEMBL4190264, “Phylogenomics of 2,4-Diacetylphloroglucinol-Producing Pseudomonas and Novel Antiglycation Endophytes from Piper auritum” (J Nat Prod, 2017).
Each block holds one molecule with its values, some of them ahead of it. Activity calls are given as the source filed them. The rule behind the calls is not given here.

What was measured:
[1] = target: T1, Albumin (Bos taurus, UniProt P02769); assay: Antiglycation activity in bovine serum albumin assessed as inhibition of advanced glycated end product formation in presence of D-glucose by spectrofluorimetric analysis; details: for inhibition (INH): cattle
T1 sequence (P02769 whole entry): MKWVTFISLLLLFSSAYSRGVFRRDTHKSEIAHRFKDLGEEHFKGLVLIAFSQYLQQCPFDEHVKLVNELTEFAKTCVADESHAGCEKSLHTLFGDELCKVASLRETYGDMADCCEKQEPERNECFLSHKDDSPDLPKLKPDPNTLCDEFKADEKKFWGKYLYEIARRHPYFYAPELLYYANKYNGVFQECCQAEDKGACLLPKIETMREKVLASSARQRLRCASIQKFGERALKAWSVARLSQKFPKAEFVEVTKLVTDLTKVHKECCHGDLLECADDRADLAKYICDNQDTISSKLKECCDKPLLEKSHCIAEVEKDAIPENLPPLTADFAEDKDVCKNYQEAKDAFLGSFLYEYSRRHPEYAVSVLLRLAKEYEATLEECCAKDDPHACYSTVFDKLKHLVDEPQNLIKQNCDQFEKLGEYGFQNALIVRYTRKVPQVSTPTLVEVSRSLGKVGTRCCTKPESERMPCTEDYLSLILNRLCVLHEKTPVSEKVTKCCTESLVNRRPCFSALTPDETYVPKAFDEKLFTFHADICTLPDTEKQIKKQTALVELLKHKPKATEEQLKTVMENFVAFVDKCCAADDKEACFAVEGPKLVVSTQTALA

[2] = target: T1, Albumin; assay: Antiglycation activity in bovine serum albumin assessed as inhibition of advanced glycated end product formation in presence of D-glucose and 5-hydroxyferulic acid by spectrofluorimetric analysis; details: cattle
[3] = target: T1, Albumin; assay: Antiglycation activity in bovine serum albumin assessed as inhibition of advanced glycated end product formation in presence of D-glucose and ferulic acid by spectrofluorimetric analysis; details: cattle
[4] = target: T1, Albumin; assay: Antiglycation activity in bovine serum albumin assessed as inhibition of advanced glycated end product formation in presence of D-glucose at 10 mM by spectrofluorimetric analysis; details: cattle
[5] = Inhibition of glucose auto-oxidation after 30 mins in presence of deoxyribose by benzoate hydroxylation assay; type: functional
[6] = target: T2, Albumin (Homo sapiens, UniProt P02768); assay: Antiglycation activity in human serum albumin assessed as inhibition of fructosamine formation by measuring amadori products after 10 to 15 mins in presence of 5-hydroxyferulic acid by NBT assay
T2 sequence (P02768 whole entry): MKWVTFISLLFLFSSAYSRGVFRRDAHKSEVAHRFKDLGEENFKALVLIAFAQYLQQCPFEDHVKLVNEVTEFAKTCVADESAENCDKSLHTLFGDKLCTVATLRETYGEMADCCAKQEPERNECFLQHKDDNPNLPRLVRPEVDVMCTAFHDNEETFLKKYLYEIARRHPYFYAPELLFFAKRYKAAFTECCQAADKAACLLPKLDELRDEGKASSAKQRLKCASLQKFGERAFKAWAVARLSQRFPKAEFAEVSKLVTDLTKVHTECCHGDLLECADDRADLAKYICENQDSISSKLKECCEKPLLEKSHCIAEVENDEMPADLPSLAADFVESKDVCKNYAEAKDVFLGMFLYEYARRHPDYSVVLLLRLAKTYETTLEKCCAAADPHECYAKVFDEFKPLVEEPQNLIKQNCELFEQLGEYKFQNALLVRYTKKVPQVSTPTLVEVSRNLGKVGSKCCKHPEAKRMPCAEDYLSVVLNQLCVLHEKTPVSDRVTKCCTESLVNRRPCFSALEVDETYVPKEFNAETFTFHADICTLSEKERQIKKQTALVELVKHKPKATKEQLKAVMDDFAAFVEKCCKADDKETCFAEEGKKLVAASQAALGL

[7] = target: T2, Albumin; assay: Antiglycation activity in human serum albumin assessed as inhibition of fructosamine formation by measuring amadori products after 10 to 15 mins by NBT assay
[8] = target: T1, Albumin; assay: Antiglycation activity in bovine serum albumin assessed as inhibition of MGO-mediated protein modification after 5 days by PAGE analysis; details: cattle, 120 h

inhibition (INH) [1]: 66%
SMILES: CCCCCCCCCCCCCCCC(=O)O [PALMITIC ACID]

inhibition (INH) [1]: Not Active
inhibition (INH) [2]: Active
SMILES: COc1cc(/C=C/C(=O)O)ccc1O [FERULATE]

inhibition (INH) [1]: 66%
SMILES: CCCCCCCC/C=C\CCCCCCC(=O)O

inhibition (INH) [1]: Not Active
inhibition (INH) [3]: Active
SMILES: COc1cc(/C=C/C(=O)O)cc(O)c1O

SMILES: N=C(N)NN [PIMAGEDINE]
EC50 [1]: 26 mM
inhibition (INH) [4]: Active

SMILES: CCCCCC/C=C\CCCCCCCCCC(=O)O [VACCENIC ACID]
inhibition (INH) [1]: 66%

inhibition (INH) [6]: Active
EC50 [1]: 6.3 mM
inhibition (INH) [1]: 83%
inhibition (INH) [7]: Not Active
inhibition (INH) [8]: Active
inhibition (INH) [2]: Active
SMILES: CC(=O)c1c(O)cc(O)c(C(C)=O)c1O
inhibition [5]: Active
